Assay results taken from patent US12421209B2, “Compounds” (Hoffmann-La Roche Inc., priority 2021, dated 2025).

What was measured:
Format in all cases: cell-based
[1] = biological target: T1, hERG channels (Homo sapiens, UniProt Q12809); test: hERG screening assay (automated patch clamp, CHO crelox hERG cell line); conditions: CHO-hERG cells, whole-cell patch clamp at 35-37° C.
T1 construct: Evotec (cryopreserved) ATCC PTA-6812; host or cells: CHO (Chinese hamster ovary) cells
From the text: The CHO crelox hERG cell line (ATCC reference Nr. PTA-6812, female Chinese hamster cells) was generated and validated at Roche. Ready-to-use frozen instant CHO-hERG cells were cryopreserved at Evotec (Germany) and used directly in the experiments.
The extracellular solution contains (in mM): NaCl 150; KCl 4; CaCl2) 1; MgCl2 1; HEPES 10; pH 7.2-7.4 with NaOH, osmolarity 290-330 mOsm. The internal solution contains (in mM): KCl, 10; KF, 100; NaCl, 10; HEPES, 10; EGTA, 20; pH=7.0-7.4 with KOH, osmolarity 260-300 mOsm.
The effects of a compound on hERG K+-currents parameters will be evaluated at 2 concentrations in at least 4 cells.
The hERG test is performed using automated patch clamp system SynchroPatch® 384 (Nanion Technologies GmbH, Germany). K+ currents are measured with the patch-voltage-clamp technique in the whole-cell configuration at 35-37° C.
Cells were held at a resting voltage of −80 mV and they were stimulated by a voltage pattern shown in FIG. 1 to activate hERG channels and conduct outward IKhERG current, at a stimulation frequency of 0.1 Hz (6 bpm)
The amplitudes of IKhERG were recorded in each concentration of drug and they were compared to the vehicle control values (taken as 100%) to define fractional blocks. The concentration-response data were fitted with the following relationship: […]

[2] = biological target: T2, NLRP3 (Homo sapiens, UniProt Q96P20); test: THP-1 cells pyroptosis assay (LPS priming, nigericin, resazurin read-out); set-up: Seed THP-1 cells (25,000 cells/well) containing 1.0 μg/ml LPS; host or cells: THP-1 cells; conditions: 1.0 μg/ml LPS, 5 μM nigericin
Method: THP-1 cells (ATCC #TIB-202) were grown in RPMI containing L-glutamine (Gibco #11835) supplemented with 1 mM sodium pyruvate (Sigma #S8636) and penicillin (100 units/ml)/streptomycin (0.1 mg/ml) (Sigma #P4333) in 10% Fetal Bovine Serum (FBS) (Sigma #F0804). The cells were routinely passaged and grown to confluency (˜10^6 cells/ml). On the day of the experiment, THP-1 cells were harvested and resuspended into RPMI medium (without FBS). The cells were then counted and viability (>90%) checked by Trypan blue (Sigma #T8154). Appropriate dilutions were made to give a concentration of 625,000 cells/ml. To this diluted cell solution was added LPS (Sigma #L4524) to give a lug/ml Final Assay Concentration (FAC). 40 μl of the final preparation was aliquoted into each well of a 96-well plate. The plate thus prepared was used for compound screening.
The following method step-by-step assay was followed for compound screening. • 1. Seed THP-1 cells (25,000 cells/well) containing 1.0 μg/ml LPS in 40 μl of RPMI medium (without FBS) in 96-well, black walled, clear bottom cell culture plates coated with poly-D-lysine (VWR #734-0317) • 2. Add 5 μl compound (8 points half-log dilution, with 10 μM top dose) or vehicle (DMSO 0.1% FAC) to the appropriate wells • 3. Incubate for 3 hours at 37° C., 5% CO2 • 4. Add 5 μl nigericin (Sigma #N7143) (FAC 5 μM) to all wells • 5. Incubate for 1 hr at 37° C., 5% CO2 • 6. At the end of the incubation period, spin plates at 300×g for 3 mins and remove supernatant • 7. Then add 50 μl of resazurin (Sigma #R7017) (FAC 100 μM resazurin in RPMI medium without FBS) and incubate plates for a further 1-2 hours at 37° C. and 5% CO2 • 8. Plates were read in an Envision reader at Ex 560 nm and Em 590 nm • 9. IC50 data is fitted to a non-linear regression equation (log inhibitor vs response-variable slope 4-parameters)

[3] = biological target: T2, NLRP3; test: Human whole blood IL-1β release assay (LPS, nigericin, AlphaLisa); set-up: Human whole blood in Li-heparin tubes was obtained from healthy donors; from tissue; host or cells: human whole blood from healthy donors; conditions: 10 μM nigericin
Method: For systemic delivery, the ability to inhibit NLRP3 when the compounds are present within the bloodstream is of great importance. For this reason, the NLRP3 inhibitory activity of a number of compounds in human whole blood was investigated in accordance with the following protocol.
Human whole blood in Li-heparin tubes was obtained from healthy donors from a volunteer donor panel. • 1. Plate out 80 μl of whole blood containing lug/ml of LPS in 96-well, clear bottom cell culture plate (Corning #3585) • 2. Add 10 μl compound (8 points half-log dilution with 10 μM top dose) or vehicle (DMSO 0.1% FAC) to the appropriate wells • 3. Incubate for 3 hours at 37° C., 5% CO2 • 4. Add 10 μl nigericin (Sigma #N7143) (10 μM FAC) to all wells • 5. Incubate for 1 hr at 37° C., 5% CO2 • 6. At the end of the incubation period, spin plates at 300×g for 5 mins to pellet cells and remove 20 μl of supernatant and add to 96-well v-bottom plates for IL-1β analysis (note: these plates containing the supernatants can be stored at −80° C. to be analysed at a later date) • 7. IL-1β was measured according to the manufacturer protocol (Perkin Elmer-AlphaLisa IL-1 Kit AL220F-5000) • 8. IC50 data is fitted to a non-linear regression equation (log inhibitor vs response-variable slope 4-parameters)

T2 sequence (Q96P20 whole entry): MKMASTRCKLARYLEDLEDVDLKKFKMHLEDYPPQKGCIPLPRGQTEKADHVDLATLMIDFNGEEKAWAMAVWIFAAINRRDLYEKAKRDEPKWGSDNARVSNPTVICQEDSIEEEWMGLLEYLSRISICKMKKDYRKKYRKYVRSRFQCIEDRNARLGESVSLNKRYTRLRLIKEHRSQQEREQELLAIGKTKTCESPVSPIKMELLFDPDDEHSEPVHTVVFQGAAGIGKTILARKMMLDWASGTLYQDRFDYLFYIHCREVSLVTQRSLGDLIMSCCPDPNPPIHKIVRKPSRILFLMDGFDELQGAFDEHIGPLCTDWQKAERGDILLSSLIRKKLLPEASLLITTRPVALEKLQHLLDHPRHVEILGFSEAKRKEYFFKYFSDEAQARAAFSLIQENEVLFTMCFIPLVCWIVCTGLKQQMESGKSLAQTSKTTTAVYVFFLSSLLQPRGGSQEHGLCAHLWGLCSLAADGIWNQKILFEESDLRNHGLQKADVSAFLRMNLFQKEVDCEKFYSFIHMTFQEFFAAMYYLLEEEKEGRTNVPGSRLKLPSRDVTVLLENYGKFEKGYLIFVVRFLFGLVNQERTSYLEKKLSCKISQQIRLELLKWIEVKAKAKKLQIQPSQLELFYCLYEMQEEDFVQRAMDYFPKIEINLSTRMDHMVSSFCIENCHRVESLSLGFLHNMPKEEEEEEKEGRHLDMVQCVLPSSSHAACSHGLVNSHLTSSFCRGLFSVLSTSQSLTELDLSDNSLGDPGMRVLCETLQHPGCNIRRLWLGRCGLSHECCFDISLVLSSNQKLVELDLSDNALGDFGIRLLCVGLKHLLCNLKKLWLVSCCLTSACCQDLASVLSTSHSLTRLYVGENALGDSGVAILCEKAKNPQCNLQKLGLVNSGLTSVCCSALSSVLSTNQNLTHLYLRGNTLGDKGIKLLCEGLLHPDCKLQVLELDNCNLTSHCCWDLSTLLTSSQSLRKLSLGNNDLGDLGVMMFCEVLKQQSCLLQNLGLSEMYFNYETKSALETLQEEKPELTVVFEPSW
T1 sequence (Q12809 whole entry): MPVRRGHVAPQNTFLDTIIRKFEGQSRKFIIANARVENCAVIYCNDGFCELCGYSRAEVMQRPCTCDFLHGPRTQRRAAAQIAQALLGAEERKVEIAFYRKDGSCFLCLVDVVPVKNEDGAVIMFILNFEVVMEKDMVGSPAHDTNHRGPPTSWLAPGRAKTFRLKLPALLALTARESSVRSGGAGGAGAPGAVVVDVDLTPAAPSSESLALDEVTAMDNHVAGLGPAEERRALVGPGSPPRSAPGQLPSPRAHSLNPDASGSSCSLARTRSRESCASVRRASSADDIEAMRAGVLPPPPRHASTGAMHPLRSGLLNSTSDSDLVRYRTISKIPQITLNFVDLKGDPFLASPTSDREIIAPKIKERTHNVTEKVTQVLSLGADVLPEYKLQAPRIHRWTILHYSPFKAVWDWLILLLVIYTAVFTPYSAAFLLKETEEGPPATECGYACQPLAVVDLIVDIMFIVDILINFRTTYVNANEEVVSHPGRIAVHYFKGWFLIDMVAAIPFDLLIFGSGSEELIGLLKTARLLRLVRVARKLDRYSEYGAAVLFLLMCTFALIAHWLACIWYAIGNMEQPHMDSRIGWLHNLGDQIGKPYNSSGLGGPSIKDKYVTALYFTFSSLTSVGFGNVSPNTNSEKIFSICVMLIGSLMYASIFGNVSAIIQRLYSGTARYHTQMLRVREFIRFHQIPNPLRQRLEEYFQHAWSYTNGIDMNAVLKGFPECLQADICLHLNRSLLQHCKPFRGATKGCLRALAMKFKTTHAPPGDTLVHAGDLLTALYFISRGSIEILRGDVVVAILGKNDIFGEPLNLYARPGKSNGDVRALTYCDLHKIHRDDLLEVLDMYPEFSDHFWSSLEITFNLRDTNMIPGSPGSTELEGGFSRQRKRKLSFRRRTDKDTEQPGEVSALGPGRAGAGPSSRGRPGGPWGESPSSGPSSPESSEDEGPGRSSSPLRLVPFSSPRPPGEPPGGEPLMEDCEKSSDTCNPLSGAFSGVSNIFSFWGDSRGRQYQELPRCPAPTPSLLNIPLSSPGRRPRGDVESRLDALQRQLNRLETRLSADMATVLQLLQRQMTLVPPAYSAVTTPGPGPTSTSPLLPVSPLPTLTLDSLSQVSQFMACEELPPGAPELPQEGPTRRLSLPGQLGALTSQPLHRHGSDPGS

Row | SMILES | IC50 [1] [nM] | IC50 [2] [nM] | IC50 [3] [nM]
1 | CCN1CCC[C@@H](Nc2nnc(-c3ccc(C(F)(F)F)cc3O)c(C)n2)C1 [Example 4, 2-[3-[[(3R)-1-Ethyl-3-piperidyl]amino]-5-methyl-1,2,4-triazin-6-yl]-5-(trifluoromethyl) phenol] | > 10000 | 1.7 | 5.4
2 | CCN1CCC[C@@H](Nc2nnc(-c3ccc4c(c3O)CCO4)c(C)n2)C1 [Example 7, 5-[3-[[(3R)-1-Ethyl-3-piperidyl]amino]-5-methyl-1,2,4-triazin-6-yl]-2,3-dihydrobenzofuran-4-ol] | > 20000 | 1.1 | 3.7
3 | CCN1CCC[C@@H](Nc2nnc(-c3c(C)cc(C(F)(F)F)cc3O)c(C)n2)C1 [Example 21, 2-[3-[[(3R)-1-Ethyl-3-piperidyl]amino]-5-methyl-1,2,4-triazin-6-yl]-3-methyl-5-(trifluoromethyl) phenol] |  | 1.6 | 57.6
4 | CCN1CCC[C@@H](Nc2nnc(-c3ccc(OC(F)(F)F)cc3O)c(C)n2)C1 [Example 22, 2-[3-[[(3R)-1-Ethyl-3-piperidyl]amino]-5-methyl-1,2,4-triazin-6-yl]-5-(trifluoromethoxy) phenol] |  | 1.2 | 10.2
5 | CCN1C[C@@H](O)C[C@@H](Nc2nnc(-c3ccc(C(F)(F)F)cc3O)c(C)n2)C1 [Example 23, (3S,5R)-1-Ethyl-5-[[6-[2-hydroxy-4-(trifluoromethyl)phenyl]-5-methyl-1,2,4-triazin-3-yl]amino]piperidin-3-ol] |  | 40.1 | 40.5
6 | CCN1C[C@@H](O)C[C@@H](Nc2nnc(-c3c(C)cc(C(F)(F)F)cc3O)c(C)n2)C1 [Example 24, (3S,5R)-1-Ethyl-5-[[6-[2-hydroxy-6-methyl-4-(trifluoromethyl)phenyl]-5-methyl-1,2,4-triazin-3-yl]amino]piperidin-3-ol] |  | 49.6 | 125
7 | CCN1CCC[C@@H](Nc2nnc(-c3ccc4c(c3O)CCC4)c(C)n2)C1 [Example 25, 5-[3-[[(3R)-1-Ethyl-3-piperidyl]amino]-5-methyl-1,2,4-triazin-6-yl]indan-4-ol] |  | 0.7 | 6.3
